“And” between values parts separate entries of the source, which are not always exact repeats. Equal entries are not always repeated. Toxic doses and inconclusive results are not listed. Cut-off read from the data, not from the text of the source: active = T/C of 150% or more; inactive = T/C below 125%. Square brackets hold non-standard residues; d marks the D form. Peptide text beside a SMILES is read from it. ξ: configuration not given here. ξI = CCC(C)C(N)C(=O)O
Tested on: L1210 leukemia ip in BDF1 mice, survival T/C
Experiment: NCI In Vivo Anticancer Drug Screen. Data for tumor model L1210 Leukemia (intraperitoneal) in B6D2F1 (BDF1) mice
Settings: endpoint: mean survival time, higher = longer survival
How it was run: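 Value reflects the ratio of survival in compound-treated mice to survival in vehicle-treated controls, with both groups carrying the same transplanted tumor.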

[1] = dose: 150.0 mg/kg/injection, schedule: Q01DX001 (ip), vehicle: saline
[2] = dose: 200.0 mg/kg/injection, schedule: Q01DX001 (ip), vehicle: saline
[3] = dose: 400.0 mg/kg/injection, schedule: Q01DX001 (ip), vehicle: saline
[4] = dose: 100.0 mg/kg/injection, schedule: Q04DX002 (ip), vehicle: saline with Tween-80
[5] = dose: 200.0 mg/kg/injection, schedule: Q04DX002 (ip), vehicle: saline with Tween-80
[6] = dose: 400.0 mg/kg/injection, schedule: Q04DX002 (ip), vehicle: saline with Tween-80
[7] = dose: 50.0 mg/kg/injection, schedule: Q01DX001 (ip), vehicle: saline
[8] = dose: 100.0 mg/kg/injection, schedule: Q01DX001 (ip), vehicle: saline
[9] = dose: 100.0 mg/kg/injection, schedule: Q01DX009 (ip), vehicle: Klucel (hydroxypropylcellulose) (HPC)
[10] = dose: 100.0 mg/kg/injection, schedule: Q04DX003 (ip), vehicle: Klucel (hydroxypropylcellulose) (HPC)
[11] = dose: 200.0 mg/kg/injection, schedule: Q01DX009 (ip), vehicle: Klucel (hydroxypropylcellulose) (HPC)
[12] = dose: 200.0 mg/kg/injection, schedule: Q04DX003 (ip), vehicle: Klucel (hydroxypropylcellulose) (HPC)
[13] = dose: 400.0 mg/kg/injection, schedule: Q01DX009 (ip), vehicle: Klucel (hydroxypropylcellulose) (HPC)
[14] = dose: 400.0 mg/kg/injection, schedule: Q04DX003 (ip), vehicle: Klucel (hydroxypropylcellulose) (HPC)
[15] = dose: 100.0 mg/kg/injection, schedule: Q04DX003 (ip), vehicle: saline
[16] = dose: 200.0 mg/kg/injection, schedule: Q04DX003 (ip), vehicle: saline
[17] = dose: 400.0 mg/kg/injection, schedule: Q04DX003 (ip), vehicle: saline
[18] = dose: 25.0 mg/kg/injection, schedule: Q04DX003 (ip), vehicle: Klucel (hydroxypropylcellulose) (HPC)
[19] = dose: 50.0 mg/kg/injection, schedule: Q04DX003 (ip), vehicle: Klucel (hydroxypropylcellulose) (HPC)

Measured: T/C

OC1C2C=CC(C2)C1O (centres undefined)
inactive: dose: 44.0 mg/kg/injection, schedule: Q01DX001 (ip), vehicle: saline 96 % of control | dose: 66.0 mg/kg/injection, schedule: Q01DX001 (ip), vehicle: saline 100 % of control | [1] 94 % of control | [2] 106 % of control | [3] 100 % of control

Cc1cccc(Cl)c1NC(=O)CS
inactive: dose: 100.0 mg/kg/injection, schedule: Q01DX009 (ip), vehicle: saline with Tween-80 104 % of control | dose: 200.0 mg/kg/injection, schedule: Q01DX009 (ip), vehicle: saline with Tween-80 101 % of control | dose: 400.0 mg/kg/injection, schedule: Q01DX009 (ip), vehicle: saline with Tween-80 106 % of control

Cl[C](Cl)([Pb]([c]1ccccc1)([c]1ccccc1)[c]1ccccc1)[Pb]([c]1ccccc1)([c]1ccccc1)[c]1ccccc1
inactive: [4] 98 % of control | [5] 94 % of control | [6] 90 % of control

Cc1ccc(C(=O)c2ccccc2Cc2ccc3ccccc3c2)cc1
inactive: [7] 100 % of control | [8] 94 % of control | [2] 96 % of control | [3] 93 % of control

COc1ccc(CC(CO)C(CO)Cc2ccc(OC)c(OC)c2)cc1OC (centres undefined)
inactive: [9] 97 % of control | [10] 98 % of control | [11] 93 % of control | [12] 101 % of control | [13] 93 % of control | [14] 100 % of control

O=c1cccc[nH]1
inactive: dose: 25.0 mg/kg/injection, schedule: Q01DX009 (ip), vehicle: saline 100 % of control | dose: 45.0 mg/kg/injection, schedule: Q01DX009 (ip), vehicle: saline 91 % of control | dose: 50.0 mg/kg/injection, schedule: Q01DX009 (ip), vehicle: saline 106 % of control and 93 % of control | dose: 65.0 mg/kg/injection, schedule: Q01DX009 (ip), vehicle: saline 104 % of control | dose: 100.0 mg/kg/injection, schedule: Q01DX009 (ip), vehicle: saline 96 % of control and 110 % of control and 91 % of control | dose: 100.0 mg/kg/injection, schedule: Q04DX002 (ip), vehicle: saline 95 % of control | [15] 91 % of control | dose: 150.0 mg/kg/injection, schedule: Q01DX009 (ip), vehicle: saline 102 % of control | dose: 200.0 mg/kg/injection, schedule: Q01DX009 (ip), vehicle: saline 109 % of control and 110 % of control | dose: 200.0 mg/kg/injection, schedule: Q04DX002 (ip), vehicle: saline 100 % of control | [16] 91 % of control | [17] 92 % of control

Cc1nnc2nc3c(nn12)c1ccccc1n3C
inactive: dose: 6.25 mg/kg/injection, schedule: Q04DX002 (ip), vehicle: saline 100 % of control | dose: 12.5 mg/kg/injection, schedule: Q04DX002 (ip), vehicle: saline 103 % of control | dose: 25.0 mg/kg/injection, schedule: Q04DX002 (ip), vehicle: saline 96 % of control

N#CSCc1ccc(Cl)cc1
inactive: dose: 25.0 mg/kg/injection, schedule: Q01DX009 (ip), vehicle: saline with Tween-80 92 % of control

Br/C=C(\Br)CBr
inactive: dose: 75.0 mg/kg/injection, schedule: Q01DX001 (sc), vehicle: olive oil, sesame oil, peanut oil 105 % of control | dose: 150.0 mg/kg/injection, schedule: Q01DX001 (sc), vehicle: olive oil, sesame oil, peanut oil 108 % of control

CCC(C)C(NC(=O)CN)C(=O)O (centres undefined) (H-Gly-[ξI]-OH)
inactive: [4] 97 % of control | [15] 98 % of control | [5] 102 % of control | [16] 98 % of control | [6] 97 % of control | [17] 91 % of control

O=C1C=CC(=O)N1CO (tested in a mixture with another compound)
inactive: dose: 100.0 mg/kg/injection, schedule: Q04DX003 (ip), vehicle: saline with Tween-80 97 % of control | dose: 200.0 mg/kg/injection, schedule: Q04DX003 (ip), vehicle: saline with Tween-80 92 % of control | dose: 400.0 mg/kg/injection, schedule: Q04DX003 (ip), vehicle: saline with Tween-80 91 % of control

C[N+](C)(Cc1ccccc1)C1c2ccccc2-c2ccc(Br)cc21 (centres undefined)
inactive: dose: 12.5 mg/kg/injection, schedule: Q01DX009 (ip), vehicle: Klucel (hydroxypropylcellulose) (HPC) 97 % of control | dose: 12.5 mg/kg/injection, schedule: Q04DX003 (ip), vehicle: Klucel (hydroxypropylcellulose) (HPC) 94 % of control | dose: 25.0 mg/kg/injection, schedule: Q01DX009 (ip), vehicle: Klucel (hydroxypropylcellulose) (HPC) 92 % of control | [18] 94 % of control | dose: 50.0 mg/kg/injection, schedule: Q01DX009 (ip), vehicle: Klucel (hydroxypropylcellulose) (HPC) 96 % of control | [19] 88 % of control

OCCN1CCN(CCCN2c3ccccc3Sc3ccc(Cl)cc32)CC1
inactive: dose: 6.25 mg/kg/injection, schedule: Q01DX001 (ip), vehicle: Klucel (hydroxypropylcellulose) (HPC) 97 % of control | dose: 12.5 mg/kg/injection, schedule: Q01DX001 (ip), vehicle: Klucel (hydroxypropylcellulose) (HPC) 105 % of control | dose: 25.0 mg/kg/injection, schedule: Q01DX001 (ip), vehicle: Klucel (hydroxypropylcellulose) (HPC) 111 % of control | dose: 200.0 mg/kg/injection, schedule: Q04DX002 (ip), vehicle: Klucel (hydroxypropylcellulose) (HPC) 108 % of control

CCCCN(CCCC)c1ccc(N=C(C#N)c2ccc(N(CCCC)CCCC)cc2)cc1
inactive: [9] 96 % of control | [11] 96 % of control | [13] 105 % of control

Cc1ccc(C)c(C(C)NC(=O)NCCCl)c1 (centres undefined)
inactive: [10] 91 % of control | [12] 88 % of control | [14] 96 % of control

CC1Cn2ccc(=O)nc2S1 (centres undefined)
inactive: [7] 112 % of control | [8] 110 % of control | [2] 105 % of control

Cc1c(O)c2cccc(-c3ccccc3)c2oc1=O
inactive: [15] 87 % of control | [16] 91 % of control | [17] 109 % of control

C/C(=N\NS(=O)(=O)c1ccccc1)C(C)C
inactive: dose: 75.0 mg/kg/injection, schedule: Q01DX001 (ip), vehicle: saline 101 % of control | [1] 98 % of control | dose: 300.0 mg/kg/injection, schedule: Q01DX001 (ip), vehicle: saline 96 % of control

CC(=O)NC1C(OCc2ccccc2)OC(COC(c2ccccc2)(c2ccccc2)c2ccccc2)C(OS(=O)(=O)c2ccc(C)cc2)C1OCc1ccccc1 (centres undefined)
inactive: dose: 100.0 mg/kg/injection, schedule: Q01DX001 (ip), vehicle: saline with Tween-80 100 % of control | dose: 200.0 mg/kg/injection, schedule: Q01DX001 (ip), vehicle: saline with Tween-80 86 % of control | dose: 400.0 mg/kg/injection, schedule: Q01DX001 (ip), vehicle: saline with Tween-80 100 % of control

O=C(Sc1c[nH]c(=O)[nH]c1=O)c1ccc(N(CCCl)CCCl)cc1
inactive: [18] 96 % of control | [19] 102 % of control | [10] 94 % of control | [12] 100 % of control | [14] 105 % of control

COC(=O)c1nc[nH]c1C(=O)OC
inactive: [15] 112 % of control | [16] 93 % of control | [17] 109 % of control

Source: PubChem BioAssay AID248 (DTP/NCI, 2004)
